For series [1], the system named is SNU-16 transplantation tumor model. The series can be described thus: In vivo pharmacodynamic evaluation, SNU-16 gastric cancer transplantation tumor model. On the set-up: species or system nude mice. The settings on record: SNU-16 transplantation model. As to the method:
Method of establishing SNU-16 gastric cancer model: SNU-16 cells in logarithmic growth phase were collected, and the cells were resuspended in 50% PBS (pH 7.4, 0.01 M) and 50% Matrigel after cell counting. The cell concentration was adjusted to 4×10^7 cells/mL; the cells were placed in an ice box, and the cell suspension was aspirated with a 1-mL syringe and subcutaneously injected into nude mice via the anterior right armpit. Each animal was inoculated with 200 μL (8×10^6 cells/each) to establish the SNU-16 transplantation tumor model. The animals were observed regularly, and the tumor diameters were measured using an electronic vernier caliper. The data were inputted an Excel spreadsheet to calculate the tumor volume and monitor the tumor growth. When the tumor volume reached 100-300 mm^3, mice bearing similar tumor volume and in good health condition were selected. Randomization method was used for animal grouping; the number of animals in each group was n=7, and the average tumor volume of each group was about 145 mm^3. After the experiment started, tumor diameters were measured and tumor volume was calculated twice a week, and the weight of animals was weighed and recorded.
Tumor growth inhibition (TGI) was used to analyze the tumor growth trend and evaluated by tumor volume over time. The long axis (L) and short axis (W) of the subcutaneous tumors were measured twice a week by a caliper, and the tumor volume (TV) was calculated by the formula ((L×W^2)/2).
The experimental data were calculated and statistically processed by SPSS 19.0. Unless otherwise stated, data were expressed as mean f standard error (Mean±SE), and comparisons between two groups were analyzed by t-test. p<0.05 indicates a significant difference. The solvent 30% PEG400 (containing 70% deionized water, v/v) was used as negative control.

Series [2] is described as follows: Pharmacokinetic evaluation in mice (IV and PO). Type of series: in vivo, male CD-1 mice. The settings on record: for AUC(0-t) / bioavailability / Cmax / Tmax / clearance / half-life / Vd: male, plasma; for bioavailability: PO 10 mg/kg vs IV 2 mg/kg, read-out: F (bioavailability); for Cmax: read-out: Cmax (peak concentration); for Tmax: read-out: Tmax (time to peak); for clearance: read-out: Cl (plasma clearance); for half-life: read-out: T1/2 (elimination half-life) (converted); for Vd: read-out: Vdss (steady-state apparent volume of distribution); for oral bioavailability (in words): oral administration. As to the method:
Experimental Procedure: 0.4 mg/mL clear solution of the test compounds in a specific menstruum was injected intravenously into male CD-1 nude mice (overnight fasting, aged 7-9 weeks) via caudal vein at a dose of 2 mg/kg. About 30 μL of blood was collected from jugular or caudal vein at 0.0833, 0.25, 0.5, 1.0, 2.0, 4.0, 8.0 and 24 h after intravenous administration. […] About 30 μL of blood was collected from jugular or caudal vein of the male CD-1 mice at 0.0833, 0.25, 0.5, 1.0, 2.0, 4.0, 8.0 and 24 h after oral administration. The blood samples were added into anticoagulant tubes containing EDTA-K2, and then centrifuged to separate the plasma. LC-MS/MS method was used to determine the drug concentration in blood, and WinNonlin™ Version 6.3 (Pharsight, Mountain View, CA) pharmacokinetic software was used to calculate the relevant pharmacokinetic parameters by non-compartment model linear logarithmic trapezoidal method.
Note: Plasma clearance (Cl) mL/min/kg, steady-state apparent volume of distribution (Vdss) L/kg, elimination half-life (T1/2) and area under the plasma concentration curve from point 0 to the last measurable time point (AUC0-last), bioavailability F %, peak concentration (Cmax), time to peak Tmax

Another series deals with T1, human FGFR1 (Homo sapiens, UniProt P11362).
T1 construct: purchased Invitrogen PV3146
The experiment in a line: 33P isotope-labeled kinase activity test, FGFR1. Type of series: biochemical. The settings on record: ATP 5 μM. Summed up:
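Radiometric ^33P-ATP kinase assay on human FGFR1 in 20 mM Hepes, pH 7.5, 10 mM MgCl2, 1 mM EGTA, 2 mM DTT, 1% DMSO. Compound was preincubated 15 min with kinase and substrate before ATP was added. Activity is relative to DMSO blank, with IC50 from curve fitting.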

Another series addresses T2, human c-Met (Homo sapiens, UniProt P08581).
T2 construct: purchased Invitrogen PV3143
The series can be described thus: 33P isotope-labeled kinase activity test, c-Met. Type of series: biochemical. The settings on record: ATP 10 μM. Put shortly: (§1)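 Radiometric ³³P-ATP kinase assay in 20 mM Hepes pH 7.5, 10 mM MgCl2, 1 mM EGTA, 0.02% Brij35, 0.1 mM Na3VO4, 2 mM DTT, 1% DMSO. Compounds (top 1 μM or 10 μM, serial dilutions) preincubated 15 min with kinase and substrate before ATP addition. Activity relative to DMSO blank; IC50 by curve fitting.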

The next series concerns the target T3, human FGFR4 (Homo sapiens, UniProt P22455).
T3 construct: purchased Invitrogen P3054
The experiment in a line: 33P isotope-labeled kinase activity test, FGFR4. Format: biochemical. The settings on record: ATP 100 μM. Summed up: as §1

The term AUC(0-t) denotes exposure summed from dosing to a finite time, without extrapolation to infinity. In general, bioavailability refers to dose-corrected exposure relative to a reference, in per cent. What is called Tmax is the time at which the peak concentration occurs. Usually IC50 stands for the concentration that gives 50% inhibition.

T2 sequence (P08581 25-1390): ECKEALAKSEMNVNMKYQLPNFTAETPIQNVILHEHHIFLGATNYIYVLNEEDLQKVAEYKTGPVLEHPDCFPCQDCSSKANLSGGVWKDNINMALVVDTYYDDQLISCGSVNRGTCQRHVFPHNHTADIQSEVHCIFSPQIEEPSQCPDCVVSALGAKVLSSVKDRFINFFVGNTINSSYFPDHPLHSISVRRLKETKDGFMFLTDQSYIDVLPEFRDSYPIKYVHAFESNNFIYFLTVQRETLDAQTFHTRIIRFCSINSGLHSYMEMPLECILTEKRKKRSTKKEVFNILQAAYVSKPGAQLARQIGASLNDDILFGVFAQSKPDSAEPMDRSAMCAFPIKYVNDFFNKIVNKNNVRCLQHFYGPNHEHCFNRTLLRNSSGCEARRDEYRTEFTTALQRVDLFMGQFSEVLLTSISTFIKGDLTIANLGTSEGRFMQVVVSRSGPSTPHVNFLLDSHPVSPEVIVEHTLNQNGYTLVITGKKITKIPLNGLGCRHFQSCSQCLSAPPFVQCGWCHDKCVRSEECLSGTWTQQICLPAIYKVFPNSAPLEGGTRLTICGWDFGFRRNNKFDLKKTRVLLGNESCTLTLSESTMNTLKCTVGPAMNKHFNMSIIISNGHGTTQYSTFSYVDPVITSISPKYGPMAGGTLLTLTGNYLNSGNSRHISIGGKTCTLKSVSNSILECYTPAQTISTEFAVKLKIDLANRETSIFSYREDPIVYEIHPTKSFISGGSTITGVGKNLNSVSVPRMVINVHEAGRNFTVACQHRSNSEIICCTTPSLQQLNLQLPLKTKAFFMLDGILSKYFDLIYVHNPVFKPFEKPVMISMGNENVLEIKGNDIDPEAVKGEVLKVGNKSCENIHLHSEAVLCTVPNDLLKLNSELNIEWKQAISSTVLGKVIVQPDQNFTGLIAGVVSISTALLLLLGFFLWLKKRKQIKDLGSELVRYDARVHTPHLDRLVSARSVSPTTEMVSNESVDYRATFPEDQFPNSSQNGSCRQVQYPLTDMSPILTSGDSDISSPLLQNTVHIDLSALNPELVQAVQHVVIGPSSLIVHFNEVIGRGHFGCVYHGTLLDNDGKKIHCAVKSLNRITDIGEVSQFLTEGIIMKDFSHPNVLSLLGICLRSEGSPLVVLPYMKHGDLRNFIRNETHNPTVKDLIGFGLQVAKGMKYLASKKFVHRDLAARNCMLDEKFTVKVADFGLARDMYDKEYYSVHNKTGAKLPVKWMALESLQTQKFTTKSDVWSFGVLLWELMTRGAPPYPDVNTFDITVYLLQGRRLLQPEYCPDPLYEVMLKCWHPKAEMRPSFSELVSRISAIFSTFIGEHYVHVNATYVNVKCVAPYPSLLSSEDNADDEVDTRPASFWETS
T1 sequence (P11362 22-822): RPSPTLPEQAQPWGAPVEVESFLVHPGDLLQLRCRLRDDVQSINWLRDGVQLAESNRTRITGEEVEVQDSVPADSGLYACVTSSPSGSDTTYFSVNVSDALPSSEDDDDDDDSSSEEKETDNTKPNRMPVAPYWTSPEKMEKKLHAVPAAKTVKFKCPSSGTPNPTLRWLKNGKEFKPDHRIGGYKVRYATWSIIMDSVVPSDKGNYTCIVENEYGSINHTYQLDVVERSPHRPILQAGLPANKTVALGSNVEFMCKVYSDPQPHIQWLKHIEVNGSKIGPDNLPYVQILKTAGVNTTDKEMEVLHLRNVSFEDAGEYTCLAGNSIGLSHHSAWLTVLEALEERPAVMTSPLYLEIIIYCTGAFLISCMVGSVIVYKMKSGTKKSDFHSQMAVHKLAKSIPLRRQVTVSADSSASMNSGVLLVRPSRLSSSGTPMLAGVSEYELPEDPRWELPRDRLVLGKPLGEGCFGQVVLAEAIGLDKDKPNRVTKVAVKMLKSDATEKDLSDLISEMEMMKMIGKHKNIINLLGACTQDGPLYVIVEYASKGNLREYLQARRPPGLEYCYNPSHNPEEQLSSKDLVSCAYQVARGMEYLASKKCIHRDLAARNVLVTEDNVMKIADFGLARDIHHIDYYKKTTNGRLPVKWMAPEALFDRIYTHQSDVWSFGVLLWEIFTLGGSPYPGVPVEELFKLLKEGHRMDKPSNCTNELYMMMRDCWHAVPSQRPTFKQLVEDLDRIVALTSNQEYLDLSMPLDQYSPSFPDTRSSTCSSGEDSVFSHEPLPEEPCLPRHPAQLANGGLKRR
T3 sequence (P22455 22-802): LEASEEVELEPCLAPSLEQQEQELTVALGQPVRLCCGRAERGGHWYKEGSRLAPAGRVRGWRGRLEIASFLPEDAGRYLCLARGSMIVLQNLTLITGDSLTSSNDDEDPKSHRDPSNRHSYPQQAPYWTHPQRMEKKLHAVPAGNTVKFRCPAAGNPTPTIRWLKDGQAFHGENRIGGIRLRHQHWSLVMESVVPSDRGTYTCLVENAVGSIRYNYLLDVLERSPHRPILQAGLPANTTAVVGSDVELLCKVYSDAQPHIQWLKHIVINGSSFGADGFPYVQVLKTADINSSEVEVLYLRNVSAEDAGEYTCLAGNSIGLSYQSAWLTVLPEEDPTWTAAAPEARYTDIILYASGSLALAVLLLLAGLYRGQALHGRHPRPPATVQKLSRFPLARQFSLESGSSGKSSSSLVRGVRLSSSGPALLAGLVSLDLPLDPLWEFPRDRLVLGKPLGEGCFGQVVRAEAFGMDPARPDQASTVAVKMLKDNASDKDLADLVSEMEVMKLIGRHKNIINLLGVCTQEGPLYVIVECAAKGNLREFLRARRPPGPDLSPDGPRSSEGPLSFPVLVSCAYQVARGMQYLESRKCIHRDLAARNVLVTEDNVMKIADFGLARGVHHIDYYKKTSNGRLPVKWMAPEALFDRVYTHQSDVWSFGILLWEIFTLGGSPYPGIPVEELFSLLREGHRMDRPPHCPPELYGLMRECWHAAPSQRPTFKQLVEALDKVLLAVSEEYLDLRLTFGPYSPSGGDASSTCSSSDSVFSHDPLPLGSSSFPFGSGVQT

As to `COc1cc(OC)c(F)c(Cc2c[nH]c3ncc(-c4cnn(CCO)c4)cc23)c1F` [Embodiment 46], the “TGI % (the last administration on the 21th day)” value (“TGI %” for short) in series [1] (5 mg/KG BID) was 98%. Besides, the “TGI %” value in series [1] (10 mg/KG QD) is given as 80%. Besides, in series [2] (CD-1, mouse, PO 10 mg/kg), the AUC(0-t) was determined as 16.6 µM·h, the Cmax stood at 5040 nM and the Tmax was determined as 1 h. In series [2] (CD-1, mouse), the bioavailability was determined as 86.6%. Besides, in series [2] (CD-1 nude, mouse, IV 2 mg/kg), the exposure AUC(0-t) was 3.79 µM·h, the clearance stood at 21.2 mL/min/kg, the half-life is 66 min and the Vd stood at 1.7 L/kg. Also, in series [2], the “oral bioavailability (in words)” value is “high oral bioavailability”.

Take `COc1nc(OC)c(F)c(Cc2c[nH]c3ncc(-c4cnn(CCO)c4)cc23)c1F` [Embodiment 48]: in series [1] (10 mg/KG QD), the “TGI %” value is 77%. The molecule also gave an IC50 on human FGFR1 of 0.3 nM. In series [2] (CD-1, mouse, PO 10 mg/kg), the AUC(0-t) is 3.23 µM·h, the Cmax came to 877 nM and the Tmax is 1.3 h. In addition, in series [2] (CD-1, mouse), the bioavailability worked out at 21.5%. For the same molecule, in series [2] (CD-1 nude, mouse, IV 2 mg/kg), the AUC(0-t) turned out to be 3.15 µM·h, the clearance came to 25.3 mL/min/kg, the half-life was 66 min and the Vd is 2.1 L/kg. Further, in series [2], the “oral bioavailability (in words)” value was “moderate bioavailability”. On human c-Met, this molecule displayed an IC50 of 6.3 nM. The molecule further came in with an IC50 against human FGFR4 of 1.7 nM.

These data come from patent publication US12312347B2, “Azaindole derivative and use thereof as FGFR and C-Met inhibitor” (Wuxi Life Fountain Biotech Co., Ltd, priority 2018, dated 2025).
